In patent US20100063008A1, “GELATINOUS ELASTOMER COMPOSITIONS” (Silipos, Inc., priority 2008, published 2010):

Experiments:
[1] = Exudation of active agents from gel specimens to filter paper discs, quantified by UV, MS, GC and/or HPLC after extraction; type: physicochemical; conditions: for Active Agent Transferred from Gel to Filters: 37° C., 0.40 psi; for Total Active Agent Exuded from Gel: cumulative
Description: Sample filter paper discs were placed in contact with gel specimens of same diameter under constant low pressure (0.40 psi. (2.8 Mpa)) at 37° C. Multiple time-controlled exposures of the filter paper to the gel were preformed in succession to same side of gel. Quantification of active agent transferred to the filter paper discs was determined by UV, MS, GC and or HPLC analysis after extraction of active agent from the filter paper. Exudation rates was expressed as μg/unit time per unit surface area.
This compound was then divided into three aliquots' of approximately 10 grams each and poured into a 2.625″ diameter aluminum petri dish and allowed to cool to create individual gel samle discs. Subsequently, absorbent cellulose filter blotter paper was die cut to enough 2.625″ diameter discs to be employed as a wicking media for repeated exposure in direct contact with the gel compound under specific conditions as follows.
(§1) Exposure Conditions: 37-40 deg. C., Sample filter paper discs in contact with gel specimens of same diameter were stacked in […]. aluminum petri dishes, gel specimen diameter 2.625″×0.125″ thick, filter paper disc diameter 2.625″ with another petri dish and a 1 kg dead weight on top of stack. Pressure calculated at ˜0.407 psi. (2.8 Mpa) constant. Two replicates per test condition. Repeat exposures at 3 hours then repeat three exposures of 18 hours each, changing discs but keeping same gel specimen and same side of each gel specimen in contact with each successive filter paper disc sample.
The filter paper disc specimens aa through kk were then sent to an analytical laboratory for HPLC and GC analysis along with a small sample of each individual raw ingredient so that the HPLC and GC equipment could be calibrated for the protocol being employed by the lab. This calibration allowed for determining the maximum recoverable (measurable) amount of each ingredient that could be measured using these techniques and would later be used to correct the data. The analytical laboratory then detected and measured the amount of each of the added active agents that was flushed out of the filter paper discs using wet chemistry techniques known to those skilled in the art.
The analytical data was interpreted, and the amounts of each ingredient which was exuded into each filter paper blotter disc specimen, and subsequently extracted using wet chemistry, were then entered into a data analysis spreadsheet and adjusted based on the Analytical Recovery Rate to determine actual concentration of each ingredient extracted.

[2] = Total weight of exudate (oil) absorbed by filter paper blotter discs and theoretical amount of each ingredient exuded; type: physicochemical
Description: as §1
Data was calculated to determine the total weight of exudate absorbed by each individual sample filter paper blotter disc test specimen. Calculations were then performed based upon the ratios of ingredients in the gel disc formula to determine the theoretical amount of each ingredient that could have been exuded from the oil if the oil contained the same ratio of ingredients as contained in the control oil sample and in the gel.

[3] = Gel Specimen Number 1, 1 h filter exposure, time 0-1 h
[4] = Gel Specimen Number 1, 3 h filter exposure, time 1-4 h
[5] = Gel Specimen Number 1, 18 h filter exposure, time 4-22 h
[6] = Gel Specimen Number 1, 18 h filter exposure, time 22-40 h
[7] = Gel Specimen Number 1, 18 h filter exposure, time 40-58 h
[8] = Gel Specimen Number 1, Time 1 h
[9] = Gel Specimen Number 1, Time 4 h
[10] = Gel Specimen Number 1, Time 22 h
[11] = Gel Specimen Number 1, Time 40 h
[12] = Gel Specimen Number 1, Time 58 h
[13] = Gel Specimen Number 2, 1 h filter exposure, time 0-1 h
[14] = Gel Specimen Number 2, 3 h filter exposure, time 1-4 h
[15] = Gel Specimen Number 2, 18 h filter exposure, time 4-22 h
[16] = Gel Specimen Number 2, 18 h filter exposure, time 22-40 h
[17] = Gel Specimen Number 2, 18 h filter exposure, time 40-58 h
[18] = Gel Specimen Number 2, Time 1 h
[19] = Gel Specimen Number 2, Time 4 h
[20] = Gel Specimen Number 2, Time 22 h
[21] = Gel Specimen Number 2, Time 40 h
[22] = Gel Specimen Number 2, Time 58 h
[23] = Specimen aa, Hours 1, Cummulative Hours 1
[24] = Specimen bb, Hours 1, Cummulative Hours 1
[25] = Specimen cc, Hours 3, Cummulative Hours 4
[26] = Specimen dd, Hours 3, Cummulative Hours 4
[27] = Specimen ee, Hours 18, Cummulative Hours 22
[28] = Specimen ff, Hours 18, Cummulative Hours 22
[29] = Specimen gg, Hours 18, Cummulative Hours 40
[30] = Specimen hh, Hours 18, Cummulative Hours 40
[31] = Specimen ii, Hours 18, Cummulative Hours 58
[32] = Specimen kk, Hours 18, Cummulative Hours 58

| Active Agent Transferred from Gel to Filters [1, 3] [μg per filter] | Active Agent Transferred from Gel to Filters [1, 4] [μg per filter] | Active Agent Transferred from Gel to Filters [1, 5] [μg per filter] | Active Agent Transferred from Gel to Filters [1, 6] [μg per filter] | Active Agent Transferred from Gel to Filters [1, 7] [μg per filter] | Total Active Agent Exuded from Gel [1, 8] [µg] | Total Active Agent Exuded from Gel [1, 9] [µg] | Total Active Agent Exuded from Gel [1, 10] [µg] | Total Active Agent Exuded from Gel [1, 11] [µg] | Total Active Agent Exuded from Gel [1, 12] [µg] | Active Agent Transferred from Gel to Filters [1, 13] [μg per filter] | Active Agent Transferred from Gel to Filters [1, 14] [μg per filter] | Active Agent Transferred from Gel to Filters [1, 15] [μg per filter] | Active Agent Transferred from Gel to Filters [1, 16] [μg per filter] | Active Agent Transferred from Gel to Filters [1, 17] [μg per filter] | Total Active Agent Exuded from Gel [1, 18] [µg] | Total Active Agent Exuded from Gel [1, 19] [µg] | Total Active Agent Exuded from Gel [1, 20] [µg] | Total Active Agent Exuded from Gel [1, 21] [µg] | Total Active Agent Exuded from Gel [1, 22] [µg] | Molecule | also measured |
| --- | --- | --- | --- | --- | --- | --- | --- | --- | --- | --- | --- | --- | --- | --- | --- | --- | --- | --- | --- | --- | --- |
| 841 | 977 | 1955 | 1682 | 916 | 841 | 1818 | 3773 | 5455 | 6370 | 1159 | 1284 | 1864 | 1307 | 1523 | 1159 | 2443 | 4307 | 5614 | 7136 | CCCCCCCCCCCCCCCC(=O)OC/C=C(C)/C=C/C=C(C)/C=C/C1=C(C)CCCC1(C)C [Vit. A Palmitate, reference compound] | Quantitative Analysis - Islechem u-gram extraction [1, 23]: 740 u-gram; Quantitative Analysis - Islechem u-gram extraction [1, 24]: 1020 u-gram; Quantitative Analysis - Islechem u-gram extraction [1, 25]: 860 u-gram; Quantitative Analysis - Islechem u-gram extraction [1, 26]: 1130 u-gram; Quantitative Analysis - Islechem u-gram extraction [1, 27]: 1720 u-gram; Quantitative Analysis - Islechem u-gram extraction [1, 28]: 1640 u-gram; Quantitative Analysis - Islechem u-gram extraction [1, 29]: 1480 u-gram; Quantitative Analysis - Islechem u-gram extraction [1, 30]: 1150 u-gram; Quantitative Analysis - Islechem u-gram extraction [1, 31]: 806 u-gram; Quantitative Analysis - Islechem u-gram extraction [1, 32]: 1340 u-gram; Estimated grams of ingredient exuded (theoretical amount from ratios of ingredients in the gel disc formula) ([2]; Sample aa, Test Disc 1, Exposed 1 hours): 0.0022 grams; Estimated grams of ingredient exuded (theoretical amount from ratios of ingredients in the gel disc formula) ([2]; Sample bb, Test Disc 1 Replicate, Exposed 1 hours): 0.0031 grams; Estimated grams of ingredient exuded (theoretical amount from ratios of ingredients in the gel disc formula) ([2]; Sample cc, Test Disc 2, Exposed 3 hours): 0.0024 grams; Estimated grams of ingredient exuded (theoretical amount from ratios of ingredients in the gel disc formula) ([2]; Sample dd, Test Disc 2 Replicate, Exposed 3 hours): 0.0035 grams; Estimated grams of ingredient exuded (theoretical amount from ratios of ingredients in the gel disc formula) ([2]; Sample ee, Test Disc 3, Exposed 18 hours): 0.0062 grams; Estimated grams of ingredient exuded (theoretical amount from ratios of ingredients in the gel disc formula) ([2]; Sample ff, Test Disc 3 Replicate, Exposed 18 hours): 0.0062 grams; Estimated grams of ingredient exuded (theoretical amount from ratios of ingredients in the gel disc formula) ([2]; Sample gg, Test Disc 4, Exposed 18 hours): 0.0064 grams; Estimated grams of ingredient exuded (theoretical amount from ratios of ingredients in the gel disc formula) ([2]; Sample hh, Test Disc 4 Replicate, Exposed 18 hours): 0.0057 grams; Estimated grams of ingredient exuded (theoretical amount from ratios of ingredients in the gel disc formula) ([2]; Sample ii, Test Disc 5, Exposed 18 hours): 0.0051 grams; Estimated grams of ingredient exuded (theoretical amount from ratios of ingredients in the gel disc formula) ([2]; Sample kk, Test Disc 5 Replicate, Exposed 18 hours): 0.0051 grams |
| 18 | 18 | 25 | 29 | 10 | 18 | 35 | 60 | 89 | 99 | 20 | 24 | 22 | 13 | 20 | 20 | 43 | 65 | 78 | 98 | Ceramide III | Quantitative Analysis - Islechem u-gram extraction [1, 23]: 17 u-gram; Quantitative Analysis - Islechem u-gram extraction [1, 24]: 19 u-gram; Quantitative Analysis - Islechem u-gram extraction [1, 25]: 17 u-gram; Quantitative Analysis - Islechem u-gram extraction [1, 26]: 23 u-gram; Quantitative Analysis - Islechem u-gram extraction [1, 27]: 24 u-gram; Quantitative Analysis - Islechem u-gram extraction [1, 28]: 21 u-gram; Quantitative Analysis - Islechem u-gram extraction [1, 29]: 28 u-gram; Quantitative Analysis - Islechem u-gram extraction [1, 30]: 13 u-gram; Quantitative Analysis - Islechem u-gram extraction [1, 31]: 9.6 u-gram; Quantitative Analysis - Islechem u-gram extraction [1, 32]: 19 u-gram |
| 372 | 793 | 4765 | 6600 | 4035 | 372 | 1165 | 5929 | 12529 | 16565 | 705 | 1459 | 5153 | 4976 | 3941 | 705 | 2164 | 7316 | 12293 | 16234 | O=C(O)c1ccccc1O [Salicylic Acid, reference compound] | – |
